Assay [1] concerns TC1. The assay can be described thus: Antitumor activity against HPV16 associated TC1 cells xenografted C57BL/6(H2b) mouse at 40 ug. It counts as functional.
The subject of assay [2] is TC1. The assay can be described thus: Antitumor activity against HPV16 associated TC1 cells xenografted C57BL/6(H2b) mouse.

These results are taken from ChEMBL document CHEMBL1148777, “Toward the development of prophylactic and therapeutic human papillomavirus type-16 lipopeptide vaccines” (J Med Chem, 2007).

Calls of active or inactive are those of the source. The rule behind the calls is not given here. *1 amine or outer side, *2 acyl side, *3 side chain or, on linkers, in order; H or OH if unused. Where a SMILES comes first, the peptide text is derived from it. [ ]: non-standard residue; d: D form. The star is where a group is joined. ξ: configuration not given here. X3 = CC(=O)OC[C@@H]1O[C@H](N*)[C@H](OC(C)=O)[C@H](OC(C)=O)[C@H]1OC(C)=O; X2 = OC[C@@H]1O[C@H](N*)[C@@H](O)[C@H](O)[C@H]1O; X1 = OC[C@@H]1O[C@H](N*)[C@H](O)[C@H](O)[C@H]1O; Ile(3ξ) = CCC(C)[C@H](N)C(=O)O; Thr(3ξ) = CC(O)[C@H](N)C(=O)O; Suc = O=C(CCC(=O)[*:2])[*:1]

As to `CCC(C)[C@H](NC(=O)[C@H](CC(N)=O)NC(=O)[C@H](Cc1ccc(O)cc1)NC(=O)[C@H](Cc1cnc[nH]1)NC(=O)[C@H](C)NC(=O)[C@H](CCCNC(=N)N)NC(=O)[C@H](CC(=O)O)NC(=O)[C@@H]1CCCN1C(=O)[C@H](CCC(=O)O)NC(=O)[C@H](C)NC(=O)[C@H](CCC(N)=O)NC(=O)CCC(=O)N[C@H]1O[C@@H](CO)[C@H](O)[C@@H](O)[C@@H]1O)C(=O)N[C@H](C(=O)N[C@H](C(=O)N[C@@H](Cc1ccccc1)C(=O)N[C@@H](CS)C(=O)N[C@@H](CS)C(=O)N[C@@H](CCCCN)C(=O)N[C@@H](CS)C(=O)N[C@@H](CC(=O)O)C(N)=O)C(C)O)C(C)C` (some centres undefined) ({X2-Suc}-QAEPDRAHYN[Ile(3ξ)]V[Thr(3ξ)]FCCKCD-NH2), in the assay on TC1 [1], the outcome was inactive.
On the same count and under the same terms, for `CCC(C)[C@H](NC(=O)[C@H](CC(N)=O)NC(=O)[C@H](Cc1ccc(O)cc1)NC(=O)[C@H](Cc1cnc[nH]1)NC(=O)[C@H](C)NC(=O)[C@H](CCCNC(=N)N)NC(=O)[C@H](CC(=O)O)NC(=O)[C@@H]1CCCN1C(=O)[C@H](CCC(=O)O)NC(=O)[C@H](C)NC(=O)[C@H](CCC(N)=O)NC(=O)CCC(=O)N[C@H]1O[C@@H](CO)[C@H](O)[C@@H](O)[C@H]1O)C(=O)N[C@H](C(=O)N[C@H](C(=O)N[C@@H](Cc1ccccc1)C(=O)N[C@@H](CS)C(=O)N[C@@H](CS)C(=O)N[C@@H](CCCCN)C(=O)N[C@@H](CS)C(=O)N[C@@H](CC(=O)O)C(N)=O)C(C)O)C(C)C` (some centres undefined) ({X1-Suc}-QAEPDRAHYN[Ile(3ξ)]V[Thr(3ξ)]FCCKCD-NH2) the value was “inactive”.
The same measure, in the same setting: for `CCC(C)[C@H](NC(=O)[C@H](CC(N)=O)NC(=O)[C@H](Cc1ccc(O)cc1)NC(=O)[C@H](Cc1cnc[nH]1)NC(=O)[C@H](C)NC(=O)[C@H](CCCNC(=N)N)NC(=O)[C@H](CC(=O)O)NC(=O)[C@@H]1CCCN1C(=O)[C@H](CCC(=O)O)NC(=O)[C@H](C)NC(=O)[C@H](CCC(N)=O)NC(=O)CCC(=O)N[C@H]1O[C@@H](COC(C)=O)[C@H](OC(C)=O)[C@@H](OC(C)=O)[C@H]1OC(C)=O)C(=O)N[C@H](C(=O)N[C@H](C(=O)N[C@@H](Cc1ccccc1)C(=O)N[C@@H](CS)C(=O)N[C@@H](CS)C(=O)N[C@@H](CCCCN)C(=O)N[C@@H](CS)C(=O)N[C@@H](CC(=O)O)C(N)=O)C(C)O)C(C)C` (some centres undefined) ({X3-Suc}-QAEPDRAHYN[Ile(3ξ)]V[Thr(3ξ)]FCCKCD-NH2) the value was “inactive”.
`CC[C@H](C)[C@H](NC(=O)[C@@H](NC(=O)[C@@H](N)CO)[C@@H](C)CC)C(=O)N[C@@H](CC(N)=O)C(=O)N[C@@H](Cc1ccccc1)C(=O)N[C@@H](CCC(=O)O)C(=O)N[C@@H](CCCCN)C(=O)N[C@@H](CC(C)C)C(=O)O`: the result in the assay on TC1 [2] was inactive.
